Structures can show the parent of a compound that is named as a salt.
Tests used:
[1] = system: ENR+CD organoids (ISC to Paneth cell differentiation); experiment: Primary screen: basal (non-stimulated) lysozyme secretion LYZ.NS, 2.5-D 384-well ENR+CD organoid differentiation; format: cell-based, mouse
Description: (§1) High-throughput screening.

[2] = system: ENR+CD organoids (ISC to Paneth cell differentiation); experiment: Primary screen: CCh-stimulated lysozyme secretion LYZ.S, 2.5-D 384-well ENR+CD organoid differentiation; format: cell-based, mouse; settings: primary screen
Description: as §1

ENR+CD organoids = experiment: Primary screen: ATP (CellTiter-Glo 3D, CTG) cell number/viability, 2.5-D 384-well ENR+CD organoids;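 also: compounds given at plating and again on day 3 over a 6-day differentiation from ENR+CV stem-cell-enriched precursors, ATP measured on day 6, plate median as control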
[3] = primary screen, dose 0.08 uM, FC relative to plate median
[4] = primary screen, dose 0.08 uM, standard z score
[5] = primary screen, dose 0.40 uM, FC relative to plate median
[6] = primary screen, dose 0.40 uM, standard z score
[7] = primary screen, dose 2.00 uM, FC relative to plate median
[8] = primary screen, dose 2.00 uM, standard z score
[9] = primary screen, dose 10.00 uM, FC relative to plate median
[10] = primary screen, dose 10.00 uM, standard z score
[11] = primary screen; dose 0.08 uM; FC vs plate median
[12] = primary screen; dose 0.40 uM; FC vs plate median
[13] = primary screen; dose 2.00 uM; FC vs plate median
[14] = primary screen; dose 10.00 uM; FC vs plate median
[15] = dose 0.08 uM, FC vs plate median
[16] = dose 0.40 uM, FC vs plate median
[17] = dose 2.00 uM, FC vs plate median
[18] = dose 10.00 uM, FC vs plate median
[19] = primary screen, standard z score, dose 0.08 uM
[20] = primary screen, standard z score, dose 0.40 uM
[21] = primary screen, standard z score, dose 2.00 uM
[22] = primary screen, standard z score, dose 10.00 uM

**Q.** What does the source list for `O=C(Nc1cc(C(F)(F)F)ccc1N1CCCCC1)c1ccncc1` [SRPIN340]?
**A.** Dose.FC.LYZ.NS [1, 3]: 0.115 log2 fold change; Z.LYZ.NS [1, 4]: 1.004; Dose.FC.LYZ.NS [1, 5]: 0.040 log2 fold change; Z.LYZ.NS [1, 6]: 0.348; Dose.FC.LYZ.NS [1, 7]: 0.097 log2 fold change; Z.LYZ.NS [1, 8]: 0.846; Dose.FC.LYZ.NS [1, 9]: 0.022 log2 fold change; Z.LYZ.NS [1, 10]: 0.192; Dose.FC.LYZ.S ([2]; dose 0.08 uM, FC relative to plate median): 0.112 log2 fold change; Dose.FC.LYZ.S ([2]; dose 0.40 uM, FC relative to plate median): 0.098 log2 fold change; Dose.FC.LYZ.S ([2]; dose 2.00 uM, FC relative to plate median): 0.100 log2 fold change; Dose.FC.LYZ.S ([2]; dose 10.00 uM, FC relative to plate median): 0.078 log2 fold change; Dose.FC.CTG (ENR+CD organoids; [3]): 0.421 log2 fold change; Z.CTG (ENR+CD organoids; [4]): 1.005; Dose.FC.CTG (ENR+CD organoids; [5]): 0.445 log2 fold change; Z.CTG (ENR+CD organoids; [6]): 1.063; Dose.FC.CTG (ENR+CD organoids; [7]): 0.453 log2 fold change; Z.CTG (ENR+CD organoids; [8]): 1.083; Dose.FC.CTG (ENR+CD organoids; [9]): 0.467 log2 fold change; Z.CTG (ENR+CD organoids; [10]): 1.115

**Q.** Which results are given for `O=C(O)/C=C/c1ccc(Cn2ccnc2)cc1` [Ozagrel HCl]?
**A.** Z.LYZ.NS [1, 4]: 1.756; Z.LYZ.NS [1, 6]: 0.000; Z.LYZ.NS [1, 8]: 0.308; Z.LYZ.NS [1, 10]: −0.061; Dose.FC.LYZ.NS [1, 11]: 0.202 log2 fold change; Dose.FC.LYZ.NS [1, 12]: 0.000 log2 fold change; Dose.FC.LYZ.NS [1, 13]: 0.035 log2 fold change; Dose.FC.LYZ.NS [1, 14]: −0.007 log2 fold change; Dose.FC.LYZ.S [2, 15]: 0.119 log2 fold change; Dose.FC.LYZ.S [2, 16]: 0.073 log2 fold change; Dose.FC.LYZ.S [2, 17]: 0.135 log2 fold change; Dose.FC.LYZ.S [2, 18]: 0.061 log2 fold change; Dose.FC.CTG (ENR+CD organoids; [11]): 0.049 log2 fold change; Dose.FC.CTG (ENR+CD organoids; [12]): 0.133 log2 fold change; Dose.FC.CTG (ENR+CD organoids; [13]): 0.183 log2 fold change; Dose.FC.CTG (ENR+CD organoids; [14]): 0.229 log2 fold change

**Q.** Which Dose.FC.LYZ.NS ([1]; primary screen, dose 0.08 uM) does the source give for `CC(C)NC[C@@H](C(=O)N1CCN(c2ncnc3c2[C@H](C)C[C@H]3O)CC1)c1ccc(Cl)cc1` [GDC-0068] here?
**A.** Its Dose.FC.LYZ.NS is 0.036 log2 fold change.

**Q.** And the Dose.FC.LYZ.NS ([1]; primary screen, dose 0.40 uM)?
**A.** The Dose.FC.LYZ.NS was 0.054 log2 fold change.

**Q.** What about the Dose.FC.LYZ.NS ([1]; primary screen, dose 2.00 uM) of the same compound?
**A.** Its Dose.FC.LYZ.NS is −0.077 log2 fold change.

**Q.** What about the Dose.FC.LYZ.NS ([1]; primary screen, dose 10.00 uM) of the same compound?
**A.** Its Dose.FC.LYZ.NS is −0.185 log2 fold change.

**Q.** What about the Z.LYZ.NS [1, 19] of the same compound?
**A.** Its Z.LYZ.NS is 0.311.

**Q.** What about the Z.LYZ.NS [1, 20] of the same compound?
**A.** The Z.LYZ.NS was 0.469.

**Q.** What about the Z.LYZ.NS [1, 21] of the same compound?
**A.** The Z.LYZ.NS was −0.675.

**Q.** And the Z.LYZ.NS [1, 22]?
**A.** The Z.LYZ.NS was −1.613.

**Q.** What about the Dose.FC.LYZ.S ([2]; dose 0.08 uM) of the same compound?
**A.** Its Dose.FC.LYZ.S is 0.076 log2 fold change.

**Q.** And the Dose.FC.LYZ.S ([2]; dose 0.40 uM)?
**A.** The Dose.FC.LYZ.S was 0.087 log2 fold change.

**Q.** What about the Dose.FC.LYZ.S ([2]; dose 2.00 uM) of the same compound?
**A.** Its Dose.FC.LYZ.S is −0.059 log2 fold change.

**Q.** What about the Dose.FC.LYZ.S ([2]; dose 10.00 uM) of the same compound?
**A.** The Dose.FC.LYZ.S was −0.319 log2 fold change.

**Q.** What about the Dose.FC.CTG (ENR+CD organoids; primary screen, dose 0.08 uM) of the same compound?
**A.** The Dose.FC.CTG was 0.042 log2 fold change.

**Q.** What about the Dose.FC.CTG (ENR+CD organoids; primary screen, dose 0.40 uM) of the same compound?
**A.** The Dose.FC.CTG was 0.118 log2 fold change.

**Q.** What about the Dose.FC.CTG (ENR+CD organoids; primary screen, dose 2.00 uM) of the same compound?
**A.** The Dose.FC.CTG was 0.184 log2 fold change.

**Q.** What about the Dose.FC.CTG (ENR+CD organoids; primary screen, dose 10.00 uM) of the same compound?
**A.** The Dose.FC.CTG was −0.100 log2 fold change.

**Q.** And the Z.CTG (ENR+CD organoids; [19])?
**A.** Its Z.CTG is 0.099.

**Q.** And the Z.CTG (ENR+CD organoids; [20])?
**A.** The Z.CTG was 0.283.

**Q.** What about the Z.CTG (ENR+CD organoids; [21]) of the same compound?
**A.** The Z.CTG was 0.439.

**Q.** What about the Z.CTG (ENR+CD organoids; [22]) of the same compound?
**A.** The Z.CTG was −0.238.

**Q.** How did the Dose.FC.LYZ.NS ([1]; primary screen, dose 0.08 uM) turn out when `CC(C)c1cc(-c2n[nH]c(=O)n2-c2ccc3c(ccn3C)c2)c(O)cc1O` [Ganetespib (STA-9090)] was run?
**A.** The Dose.FC.LYZ.NS was −0.141 log2 fold change.

**Q.** What about the Dose.FC.LYZ.NS ([1]; primary screen, dose 0.40 uM) of the same compound?
**A.** The Dose.FC.LYZ.NS was −0.155 log2 fold change.

**Q.** And the Dose.FC.LYZ.NS ([1]; primary screen, dose 2.00 uM)?
**A.** Its Dose.FC.LYZ.NS is −0.150 log2 fold change.

**Q.** What about the Dose.FC.LYZ.NS ([1]; primary screen, dose 10.00 uM) of the same compound?
**A.** The Dose.FC.LYZ.NS was −0.136 log2 fold change.

**Q.** And the Z.LYZ.NS [1, 19]?
**A.** Its Z.LYZ.NS is −1.226.

**Q.** And the Z.LYZ.NS [1, 20]?
**A.** Its Z.LYZ.NS is −1.345.

**Q.** And the Z.LYZ.NS [1, 21]?
**A.** The Z.LYZ.NS was −1.309.

**Q.** What about the Z.LYZ.NS [1, 22] of the same compound?
**A.** Its Z.LYZ.NS is −1.181.

**Q.** What about the Dose.FC.LYZ.S ([2]; dose 0.08 uM) of the same compound?
**A.** The Dose.FC.LYZ.S was −0.260 log2 fold change.

**Q.** And the Dose.FC.LYZ.S ([2]; dose 0.40 uM)?
**A.** The Dose.FC.LYZ.S was −0.250 log2 fold change.

**Q.** And the Dose.FC.LYZ.S ([2]; dose 2.00 uM)?
**A.** The Dose.FC.LYZ.S was −0.260 log2 fold change.

**Q.** What about the Dose.FC.LYZ.S ([2]; dose 10.00 uM) of the same compound?
**A.** The Dose.FC.LYZ.S was −0.267 log2 fold change.

**Q.** And the Dose.FC.CTG (ENR+CD organoids; primary screen, dose 0.08 uM)?
**A.** Its Dose.FC.CTG is −1.450 log2 fold change.

**Q.** And the Dose.FC.CTG (ENR+CD organoids; primary screen, dose 0.40 uM)?
**A.** Its Dose.FC.CTG is −2.105 log2 fold change.

**Q.** And the Dose.FC.CTG (ENR+CD organoids; primary screen, dose 2.00 uM)?
**A.** The Dose.FC.CTG was −1.721 log2 fold change.

**Q.** What about the Dose.FC.CTG (ENR+CD organoids; primary screen, dose 10.00 uM) of the same compound?
**A.** The Dose.FC.CTG was −1.620 log2 fold change.

**Q.** And the Z.CTG (ENR+CD organoids; [19])?
**A.** The Z.CTG was −3.465.

**Q.** What about the Z.CTG (ENR+CD organoids; [20]) of the same compound?
**A.** The Z.CTG was −5.027.

**Q.** What about the Z.CTG (ENR+CD organoids; [21]) of the same compound?
**A.** The Z.CTG was −4.110.

**Q.** What about the Z.CTG (ENR+CD organoids; [22]) of the same compound?
**A.** The Z.CTG was −3.871.

**Q.** Which results are given for `O=[N+]([O-])C=Cc1ccc2c(c1)OCO2`?
**A.** Z.LYZ.NS [1, 4]: 0.499; Z.LYZ.NS [1, 6]: −0.088; Z.LYZ.NS [1, 8]: 0.347; Z.LYZ.NS [1, 10]: −1.307; Dose.FC.LYZ.NS [1, 11]: 0.057 log2 fold change; Dose.FC.LYZ.NS [1, 12]: −0.010 log2 fold change; Dose.FC.LYZ.NS [1, 13]: 0.040 log2 fold change; Dose.FC.LYZ.NS [1, 14]: −0.150 log2 fold change; Dose.FC.LYZ.S [2, 15]: 0.076 log2 fold change; Dose.FC.LYZ.S [2, 16]: 0.100 log2 fold change; Dose.FC.LYZ.S [2, 17]: 0.019 log2 fold change; Dose.FC.LYZ.S [2, 18]: −0.179 log2 fold change; Z.CTG (ENR+CD organoids; [4]): −0.037; Z.CTG (ENR+CD organoids; [6]): 0.146; Z.CTG (ENR+CD organoids; [8]): 0.148; Z.CTG (ENR+CD organoids; [10]): −0.469; Dose.FC.CTG (ENR+CD organoids; [11]): −0.016 log2 fold change; Dose.FC.CTG (ENR+CD organoids; [12]): 0.061 log2 fold change; Dose.FC.CTG (ENR+CD organoids; [13]): 0.062 log2 fold change; Dose.FC.CTG (ENR+CD organoids; [14]): −0.197 log2 fold change

Reference: US20220323406A1, “METHODS AND COMPOSITIONS FOR DIFFERENTIATING STEM CELLS” (Massachusetts Institute of Technology, priority 2019, published 2022)
